For one test, the system named is tumor cells. As to conditions: MICONNET et al., 2000; cited from earlier work.
Test [1] deals with HLA-B*3701 allele of MHC-I (Homo sapiens, UniProt P01889, A329T/A93T/A95T/C349S/D138N/D201E/D98Y/E176V/E187T/E204Q/E69T/G107R/H137Y/K202T/L119I/N104T/N87E/Q94N/R106L/R155S/R180D/S101D/S121R/V306I/Y123S/Y140F/Y33H/Y91S). Particulars: TANZARELLA et al., 1999; cited from earlier work.
In a further test the test system is HHD transgenic mice. The experiment in a line: Induction of specific CTLs in HHD transgenic mice by immunization with variant MAGE-A peptides; 51Cr cytotoxicity on peptide-loaded RMAS-HHD targets. Type of test: in vivo. Particulars: HHD mice, 100 μg s.c. in Freund's incomplete adjuvant; RMAS-HHD targets, effector/target 40/1. Here is the method: The immunogenicity of the variant peptides p174Y1V10, p262L2 and p248V9 was evaluated by generation of CTLs on HHD transgenic mice (PASCOLO et al., J. Exp. Med., 185, 2043, 1997). These mice are β2m−/−, D^b−/− and express an HLA-A*0201 single chain made up of the α1 and α2 domains of HLA-A*0201 and the α3 and intracellular domains of D^b, linked via its N-terminal to the C-terminal of human β2-microglobulin, via a peptide of 15 amino acids.
The HHD mice are given a subcutaneous injection at the base of the tail with 100 μg of each variant peptide to be tested, emulsified in Freund's incomplete adjuvant, in the presence of 140 μg of a T-helper epitope derived from the HBV “core” antigen (128-140, sequence […]).
After 11 days, spleen cells taken from the mice (5×10^7 cells in 10 ml) are stimulated in vitro with the test peptide (10 μM). On the 6th day of culture, the populations which respond are tested in order to determine a specific cytotoxicity. The cells which respond are restimulated in vitro at one-week intervals with 2×10^7 irradiated (3000 rads) HHD spleen cells and 1 to 0.1 μM of peptide in the presence of 50 IU/ml of recombinant IL2 (Proleukin, Chiron Corp).
Cytotoxicity assays are carried out 6 days after the final stimulation.
RMAS-HHD cells are used as targets to study the cytotoxicity. The cells are obtained by transfection of murine RMAS cells with the HHD construct as described by PASCOLO et al. (J. Exp. Med., 185, 2043, 1997).
These target cells are labeled with 100 μCi of ^51Cr for 90 minutes, and then washed three times and plated out in round-bottomed 96-well plates (3×10^3 cells/well in 100 μl of RPMI 1640+3% of fetal calf serum). They are loaded with various concentrations of test peptide (variant, native peptide, or irrelevant control peptide), at 37° C. for 90 minutes.
Next, 100 μl of the effector cells (effector cell/target cell ratio=40/1) are added to the wells and the plates are incubated at 37° C. for 4 hours. After incubation, 100 μl of supernatant are collected and the radioactivity is measured in a γ-counter.
The percentage of specific lysis is calculated by means of the formula: [(experimental ^51Cr release−spontaneous ^51Cr release)/(maximum ^51Cr release−spontaneous ^51Cr release)]×100. In all the experiments, the spontaneous release is less than 20% of the maximum release induced with 3N HCl.

For test [2], the system named is COS-7 cells cotransfected with HHD construct and MAGE-A cDNA. The experiment in a line: Stimulation of CTL248 line (induced with p248V9) with transfected COS-7 cells expressing MAGE-A antigens, TNF-α secretion. Format: cell-based, monkey. The protocol:
A CTL line called CTL248 was established from the spleen cells of an HDD mouse immunized with the peptide p248V9, by repeated stimulation in vitro with decreasing concentrations of p248G9 (10 μM-1 μM). This line is maintained in culture in the presence of 1 μM of the peptide p248G9.
The cells of the CTL248 line are stimulated, for each of the MAGE-A1, -A2, -A3, -A4, -A6, -A10 and -A12 antigens, with monkey cos-7 cells cotransfected with the HAD construct (PASCOLO et al., mentioned above) and a plasmid containing the cDNA for said antigen. By way of negative controls, COS-7 cells transfected either with the HHD construct alone or with the cDNA for the MAGE-A antigen concerned are used. The stimulation of the CTLs is evaluated by measuring their secretion of TNF-α. […]
After incubation for 6 hours, the supernatant is removed and brought into contact with WEHI164 clone 13 mouse fibrosarcoma cells (3×10^4 per well), which are characterized by a high sensitivity to TNF-α-induced apoptosis. In order to quantify the amount of TNF in the culture supernatants, a standard range of TNF-α (concentrations of 0 to 10^4 pg/ml) is used in parallel. After incubation for 16 hours at 37° C., the viability of the WEHI-164 clone 13 cells is determined by means of an MTT colorimetric assay (SIGMA) (ESPEVIK and NISSEN MEYER, J. Immunol. Methods, 95, 99, 1986).

The test system of test [3] is HLA-A*0201 human tumor cells expressing MAGE-A antigens (M44, M113, OBR). The experiment in a line: Stimulation of CTL248 line with HLA-A*0201 human tumor cells expressing MAGE-A antigens, TNF-α secretion. Type of test: cell-based. The protocol: The following HLA-A*0201 tumor lines were used: • lines expressing at least one MAGE-A antigen: M44 and M113 (melanoma); OBR (bladder cancer); • lines not expressing MAGE-A antigens: MCF-7 (breast cancer) and Caco-2 (colon cancer).
The CTL248 line was stimulated with each of the tumor lines mentioned above.
The stimulation is evaluated by detecting the secretion of TNF-α as described above.
In order to confirm that the tumor cell recognition is indeed HLA-A*0201-restricted, the CTL248 cells were stimulated with M44 cells preincubated for one hour with an anti-HLA-A*0201 monoclonal antibody (BB7.2) or with an irrelevant antibody (anti-CD19), and the production of TNFα was measured as described above.

Test [4] relates to CD8+ cells from normal donors. The experiment in a line: Induction of specific human CTLs in vitro from PBMCs of normal donors with p248V9, intracellular IFNγ production. Format: cell-based. The protocol: The ability of p248V9 to induce CTLs in vitro using peripheral blood mononuclear cells (PBMCs) from normal donors was tested as follows.
The PBMCs are obtained, from blood samples taken by leukocytapheresis on normal donors, after centrifugation at 2000 rpm for 20 min on a Ficoll/Hypaque (Amersham) gradient. After 3 washes in 0.9% NaCl, they are resuspended in complete medium (RPMI 1640 supplemented with 10% of heat-inactivated human AB serum, 40 μg/ml of gentamicin (Panpharma) and […] of L-glutamine (Gibco)), and incubated at 37° C. for 2 hours. After incubation, the non-adherent cells are removed. The adherent cells are differentiated into dendritic cells by culturing in a Teflon bag in a proportion of 3×10^6 cells/ml in complete medium supplemented with 500 IU/ml of GM-CSF (R & D Systems) and 500 IU/ml of IL-4 (R & D Systems). On the seventh day, maturing agents (100 ng/ml of polyI:C and 2 μg/ml of anti-CD40 antibody) are added to the culture. After 24 hours, the mature dendritic cells are loaded with the peptide p248V9 by incubation for 2 hours with 10 μM of peptide in the presence of 5 μg/ml of β2-microglobulin, and then irradiated at 3500 rads; they are then washed in order to remove the free peptide. CD8+ cells are isolated from the non-adherent cells by means of microbeads coupled to an anti-CD8 antibody (Miltenyi Biotec).
2×10^5 CD8+ cells are stimulated with 2×10^4 dendritic cells loaded with the peptide, in complete medium supplemented with 1000 IU/ml of IL-6 and 5 IU/ml of IL-12 in a final volume of 100 μl/well in a 96-well plate. From the seventh day, the cultures are stimulated in vitro each week with the dendritic cells loaded with the peptide, in the presence of 20 IU/ml of IL-2 and 10 ng/ml of IL-7. After the third restimulation, the CD8+ cells are collected and stimulated with EBV-transformed HLA-A*0201 allogenic B cells, in a 1/2 ratio, in the presence of 10 μM of peptide, for 16 hours.
The IFNγ-producing CD8+ cells are purified using a commercial kit (IFNγ secretion assay-cell enrichment and detection kit, Miltenyi Biotech). The cells thus purified are cultured for one week in complete medium supplemented with 20 IU/ml of IL-2 and 10 ng/ml of IL-7.
The response of these CD8+ cells to T2 cells loaded with one of the peptides p248V9, p248G9 or p248D9, or with a irrelevant peptide (HIVgag76), or to HLA-A*0201+MAGE-A+ tumor cells (M44 and M113) or HLA-A*0201+MAGE-A^− tumor cells (Caco-2), is evaluated by assaying the intracellular IFNγ production.
The CD8+ cells are incubated with the cells of the tumor line tested, in the presence of 20 μg/ml of Brefeldine-A (Sigma). […]
The cells are then analyzed by flow cytometry (FACSCalibur™ (Becton Dickinson) and CellQuest™ software).

“Also recorded” adds a separate entry of the source. Where no end group is shown, it is not given here.

Here are results for three sequences from US7419669B2, “Peptide epitopes common to antigens of the same multigene family” (Institut Gustave Roussy, priority 2002, dated 2008).

With FLWGPRALV, the “processing of the epitope by tumor cells” value with tumor cells was “not efficiently processed by tumor cells”.
Consider REPVTKAEML (listed as Homo sapiens), for which the “binding to HLA-B*3701” value in test [1] is “binds to the HLA-B*3701 allele of MHC-I”.
In the case of “YLEYRQVPV (not fully specified) [p248V9]”, in the test with HHD transgenic mice, the “CTL response generated by immunization with the variant peptide” value was “induces a CTL response directed not only against this variant but also against the two native peptides p248G9 and p248D9; also recorded: generates CTLs which kill the RMAS-HHD targets loaded with the variant peptide, or with the corresponding native peptide”. In addition, the “recognition of naturally processed MAGE-A epitope by CTLs induced with the peptide (COS-7 transfectants)” value in test [2] is “recognize a naturally processed epitope common to the MAGE-A1, -A2, -A3, -A4, -A6, -A10 and -A12 antigens”. Moreover, the “recognition of naturally processed MAGE-A epitope by CTLs induced with the peptide (HLA-A*0201 human tumor lines)” value in test [3] is “recognize a naturally processed epitope common to the MAGE-A1, -A2, -A3, -A4, -A6, -A10 and -A12 antigens”. Besides, the “induction of human CTLs by the peptide” value in test [4] (PBMCs from normal donors, peptide-loaded dendritic cells, intracellular IFNγ) is “induces human CTLs capable of also recognizing the corresponding native peptides, and capable of recognizing tumor cells expressing varied MAGE-A antigens”. The “response of p248V9-induced human CD8+ cells to T2 cells loaded with the peptide” value in test [4] (intracellular IFNγ production) is recorded as “a response of the CD8+ cells”.
